Measured values taken from patent US20030144219A1, “Formulations and methods for treatment or amelioration of inflammatory conditions” (priority 2001, published 2003).

Key:
[1] = 3.6 gm DHA per day ingested by humans; cited from earlier work
[2] = Human ingestion of DHA in studies in support of the invention; format: in vivo; settings: approximately 800 mg DHA daily
Procedure: The average dietary intake of DHA (10-60 mg/day) in the American diet is relatively low in comparison to intake in countries where fish or fish products comprise higher percentages of the diet. […] Generally, ranges of about 10-10,000 mg, or more specifically, about 50-2000 mg, or 100-1000 mg will-be preferred. […] Appropriate dosages of other polyunsaturated fatty acids can be estimated with reference to this study, based on known safe ingestion levels, or may be determined empirically, with the guidance provided herein.

CC/C=C\C/C=C\C/C=C\C/C=C\C/C=C\C/C=C\CCC(=O)O [DHA, all-cis 4,7,10,13,16,19-docosahexaenoic acid]
toxicities [1]: no apparent toxicities | adverse effects [2]: no apparent adverse effects
